Measured values as given in patent US10780090B2, “Heteroaryl compounds useful as inhibitors of SUMO activating enzyme” (Millennium Pharmaceuticals, Inc., priority 2014, dated 2020).
Read-outs that look alike come from different tables or passages of the source.

Biological target: recombinant human SAE enzyme (Homo sapiens (Human), UniProt Q9UBT2)
Test: SAE HTRF enzyme assay
Type: biochemical
Settings: for inhibition at 0.111 µM: read-out: Percent Inhibition
Outline: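 This HTRF format monitors Sumo-Flag–Ubc9-GST thioester formation catalysed by 0.11 nM human SAE with 0.5 μM ATP over 105 min at 24° C. Inhibition is expressed at a single concentration or as IC50.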

[1] = SAE inhibition at compound concentration 0.111 μM
[2] = SAE inhibition, class symbols, legend in nM

Chain of recombinant human SAE enzyme (Q9UBT2 whole entry): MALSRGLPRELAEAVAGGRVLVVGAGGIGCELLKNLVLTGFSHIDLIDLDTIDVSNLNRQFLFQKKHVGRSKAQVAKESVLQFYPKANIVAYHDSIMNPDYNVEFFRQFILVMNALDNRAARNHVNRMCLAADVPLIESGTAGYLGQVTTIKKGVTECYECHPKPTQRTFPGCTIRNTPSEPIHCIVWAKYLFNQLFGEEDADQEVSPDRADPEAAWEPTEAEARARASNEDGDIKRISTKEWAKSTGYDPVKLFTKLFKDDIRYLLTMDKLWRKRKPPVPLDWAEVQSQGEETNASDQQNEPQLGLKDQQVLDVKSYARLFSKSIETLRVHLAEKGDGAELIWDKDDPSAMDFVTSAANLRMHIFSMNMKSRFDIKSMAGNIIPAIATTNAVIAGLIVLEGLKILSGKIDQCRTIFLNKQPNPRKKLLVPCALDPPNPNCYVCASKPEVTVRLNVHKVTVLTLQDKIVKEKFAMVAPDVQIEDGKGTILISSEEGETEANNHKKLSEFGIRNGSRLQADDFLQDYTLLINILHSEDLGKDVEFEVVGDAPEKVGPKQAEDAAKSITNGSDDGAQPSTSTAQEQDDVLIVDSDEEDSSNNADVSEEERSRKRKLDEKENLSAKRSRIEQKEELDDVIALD
Chain of recombinant human SAE enzyme (Q9UBE0 whole entry partner): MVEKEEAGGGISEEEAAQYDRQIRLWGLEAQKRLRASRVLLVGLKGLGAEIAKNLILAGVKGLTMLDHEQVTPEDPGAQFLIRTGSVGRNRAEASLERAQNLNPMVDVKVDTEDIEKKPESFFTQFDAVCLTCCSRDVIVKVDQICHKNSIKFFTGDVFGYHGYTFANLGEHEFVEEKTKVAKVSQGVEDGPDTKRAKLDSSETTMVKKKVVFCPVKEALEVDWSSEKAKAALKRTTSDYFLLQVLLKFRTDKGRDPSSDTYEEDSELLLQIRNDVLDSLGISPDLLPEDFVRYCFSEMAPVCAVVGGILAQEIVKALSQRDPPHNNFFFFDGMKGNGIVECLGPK

Structure (SMILES) | Percent Inhibition (Concentration 0.111 μM) | IC50 (class symbols A/B/C) | inhibition at 0.111 µM (Concentration 0.111 μM) | other results
Cc1oc(C(=O)c2cncnc2N[C@@H]2C[C@H](COS(N)(=O)=O)[C@@H](O)C2)cc1C1OCCc2ccccc21 (single isomer, unassigned) [I-272a, {(1R,2S,4R)-4-[(5-{4-[(1R)-3,4-dihydro-1H-isochromen-1-yl]-5-methyl-2-furoyl}pyrimidin-4-yl)amino]-2-hydroxycyclopentyl}methyl sulfamate or {(1R,2S,4R)-4-[(5-{4-[(1S)-3,4-dihydro-1H-isochromen-1-yl]-5-methyl-2-furoyl}pyrimidin-4-yl)amino]-2-hydroxycyclopentyl}methyl sulfamate] | 96 | < 10 nM | – | –
NS(=O)(=O)OC[C@H]1C[C@@H](Nc2ncncc2C(=O)c2cc(COc3ccc(Cl)cc3)cs2)C[C@@H]1O [I-163, [(1R,2S,4R)-4-{[5-({4-[(4-chlorophenoxy)methyl]-2-thienyl}carbonyl)pyrimidin-4-yl]amino}-2-hydroxycyclopentyl]methyl sulfamate] | – | 10 to 100 nM | 92% | –
NS(=O)(=O)OC[C@H]1C[C@@H](Nc2ncncc2C(=O)c2cc([S@+]([O-])c3cccc(Cl)c3)c(Cl)s2)C[C@@H]1O [I-94, [(1R,2S,4R)-4-({[5-({5-Chloro-4-[(R)-(3-chlorophenyl)sulfinyl]-2-thienyl}carbonyl)pyrimidin-4-yl]amino}-2-hydroxycyclopentyl]methyl sulfamate and [(1R,2S,4R)-4-{[5-({5-chloro-4-[(S)-(3-chlorophenyl)sulfinyl]-2-thienyl}carbonyl)pyrimidin-4-yl]amino}-2-hydroxycyclopentyl]methyl sulfamate] | 98 | < 10 nM | – | –
NS(=O)(=O)OCC1CC(Nc2ncncc2C(=O)c2cc(C(O)c3cccc(Cl)c3)c(CO)s2)CC1O (mixture of isomers) [I-13, [(1R,2S,4R)-4-{[5-({4-[(R)-(3-chlorophenyl)(hydroxy)methyl]-5-(hydroxymethyl)-2-thienyl}carbonyl)pyrimidin-4-yl]amino}-2-hydroxycyclopentyl]methyl sulfamate and [(1R,2S,4R)-4-{[5-({4-[(S)-(3-chlorophenyl)(hydroxy)methyl]-5-(hydroxymethyl)-2-thienyl}carbonyl)pyrimidin-4-yl]amino}-2-hydroxycyclopentyl]methyl sulfamate] | 100 | < 10 nM | – | –
NS(=O)(=O)OC[C@H]1C[C@@H](Nc2ncncc2C(=O)c2cc(COc3ccccc3Cl)cs2)C[C@@H]1O [I-129, [(1R,2S,4R)-4-{[5-({4-[(2-chlorophenoxy)methyl]-2-thienyl}carbonyl)pyrimidin-4-yl]amino}-2-hydroxycyclopentyl]methyl sulfamate] | – | < 10 nM | 95% | –
NS(=O)(=O)OC[C@H]1C[C@@H](Nc2ncncc2C(=O)c2cc([C@@H]3OCCCc4ccc(Cl)cc43)cs2)C[C@@H]1O (single isomer, unassigned) [I-314b, [(1R,2S,4R)-4-{[5-({4-[(1R)-8-chloro-1,3,4,5-tetrahydro-2-benzoxepin-1-yl]-2-thienyl}carbonyl)pyrimidin-4-yl]amino}-2-hydroxycyclopentyl]methyl sulfamate or [(1R,2S,4R)-4-{[5-({4-[(1S)-8-chloro-1,3,4,5-tetrahydro-2-benzoxepin-1-yl]-2-thienyl}carbonyl)pyrimidin-4-yl]amino}-2-hydroxycyclopentyl]methyl sulfamate] | – | – | – | Percent Inhibition [1]: 98%; IC50 [2]: < 10 nM
Cc1ccc2c(n1)[C@H](c1cc(C(=O)c3cncnc3N[C@@H]3C[C@H](COS(N)(=O)=O)[C@@H](O)C3)sc1C)OCC2 (mixture of isomers) [I-291, [(1R,2S,4R)-2-hydroxy-4-{[5-({5-methyl-4-[(8S)-2-methyl-5,8-dihydro-6H-pyrano[3,4-b]pyridin-8-yl]-2-thienyl}carbonyl)pyrimidin-4-yl]amino}cyclopentyl]methyl sulfamate and [(1R,2S,4R)-2-hydroxy-4-{[5-({5-methyl-4-[(8R)-2-methyl-5,8-dihydro-6H-pyrano[3,4-b]pyridin-8-yl]-2-thienyl}carbonyl)pyrimidin-4-yl]amino}cyclopentyl]methyl sulfamate] | – | – | – | Percent Inhibition [1]: 99%; IC50 [2]: < 10 nM
Cc1sc(C(=O)c2cncnc2N[C@@H]2C[C@H](COS(N)(=O)=O)[C@@H](O)C2)cc1[C@@H]1OCCc2ccc(C3CC3)cc21 (mixture of isomers) [I-277, [(1R,2S,4R)-4-{[5-({4-[(1R)-7-cyclopropyl-3,4-dihydro-1H-isochromen-1-yl]-5-methyl-2-thienyl}carbonyl)pyrimidin-4-yl]amino}-2-hydroxycyclopentyl]methyl sulfamate and [(1R,2S,4R)-4-{[5-({4-[(1S)-7-cyclopropyl-3,4-dihydro-1H-isochromen-1-yl]-5-methyl-2-thienyl}carbonyl)pyrimidin-4-yl]amino}-2-hydroxycyclopentyl]methyl sulfamate] | 99 | < 10 nM | – | –
NS(=O)(=O)OC[C@H]1C[C@@H](Nc2nc(Cl)ncc2C(=O)c2ccc(-c3ccccc3)o2)[C@H](O)[C@@H]1O [I-236, [(1R,2R,3S,4R)-4-{[2-chloro-5-(5-phenyl-2-furoyl)pyrimidin-4-yl]amino}-2,3-dihydroxycyclopentyl]methyl sulfamate] | – | 100 to 1000 nM | 19% | –
NS(=O)(=O)OC[C@H]1C[C@@H](Nc2ncncc2C(=O)c2cc(Cc3ccc(Cl)c(Cl)c3)cs2)C[C@@H]1O [I-104, {(1R,2S,4R)-4-[(5-{[4-(3,4-Dichlorobenzyl)-2-thienyl]carbonyl}pyrimidin-4-yl)amino]-2-hydroxycyclopentyl)methyl sulfamate] | – | < 10 nM | 97% | –
CC(O)(c1cccc(Cl)c1)c1ccc(C(=O)c2cncnc2NC2CC(O)C(COS(N)(=O)=O)C2)s1 (mixture of isomers) [I-152, [(1R,2S,4R)-4-{[5-({5-[(1R)-1-(3-chlorophenyl)-1-hydroxyethyl]-2-thienyl}carbonyl)pyrimidin-4-yl]amino}-2-hydroxycyclopentyl]methyl sulfamate and [(1R,2S,4R)-4-{[5-({5-[(1S)-1-(3-chlorophenyl)-1-hydroxyethyl]-2-thienyl}carbonyl)pyrimidin-4-yl]amino}-2-hydroxycyclopentyl]methyl sulfamate] | 93 | < 10 nM | – | –
NS(=O)(=O)OC[C@H]1C[C@@H](Nc2ncncc2C(=O)c2cc(Cc3cccc(Cl)c3)c(F)s2)C[C@@H]1O [I-89, {(1R,2S,4R)-4-[(5-{[4-(3-chlorobenzyl)-5-fluoro-2-thienyl]carbonyl}pyrimidin-4-yl)amino]-2-hydroxycyclopentyl}methyl sulfamate] | – | < 10 nM | 98% | –
C#Cc1cccc(Cc2csc(C(=O)c3cncnc3N[C@@H]3C[C@H](COS(N)(=O)=O)[C@@H](O)C3)c2)c1 [I-70, {(1R,2S,4R)-4-[(5-{[4-(3-Ethynylbenzyl)-2-thenyl]carbonyl}pyrimidin-4-yl)amino-2-hydroxycyclopentyl}methyl sulfamate] | 98 | < 10 nM | – | –
CCOc1ccccc1OCc1csc(C(=O)c2cncnc2N[C@@H]2C[C@H](COS(N)(=O)=O)[C@@H](O)C2)c1 [I-156, [(1R,2S,4R)-4-{[5-({4-[(2-ethoxyphenoxy)methyl]-2-thienyl}carbonyl)pyrimidin-4-yl]amino}-2-hydroxycyclopentyl]methyl sulfamate] | – | < 10 nM | 92% | –
Cc1sc(C(=O)c2cncnc2N[C@@H]2C[C@H](COS(N)(=O)=O)[C@@H](O)C2)cc1[C@@H]1SCc2ccc(Cl)cc21 (mixture of isomers) [I-359a, [(1RS,2SR,4RS)-4-[[5-[4-[(R)-6-chloro-1,3-dihydro-2-benzothiophene-1-yl]-5-methyl-thiophene-2-carbonyl]pyrimidin-4-yl]amino]-2-hydroxy-cyclopentyl]methyl sulfamate] | – | – | – | inhibition at 0.111 µM [1]: 92%; IC50 [2]: 10 to 100 nM
CN1CCc2ccc(Cl)cc2[C@H]1c1csc(C(=O)c2cncnc2N[C@@H]2C[C@H](COS(N)(=O)=O)[C@@H](O)C2)c1 (mixture of isomers) [I-307, [(1R,2S,4R)-4-{[5-({4-[(1R)-7-chloro-2-methyl-1,2,3,4-tetrahydroisoquinolin-1-yl]-2-thienyl}carbonyl)pyrimidin-4-yl]amino}-2-hydroxycyclopentyl]methyl sulfamate and [(1R,2S,4R)-4-{[5-({4-[(1S)-7-chloro-2-methyl-1,2,3,4-tetrahydroisoquinolin-1-yl]-2-thienyl}carbonyl)pyrimidin-4-yl]amino}-2-hydroxycyclopentyl]methyl sulfamate] | – | – | – | Percent Inhibition [1]: 95%; IC50 [2]: < 10 nM
CSc1cccc(Cc2csc(C(=O)c3cncnc3N[C@@H]3C[C@H](COS(N)(=O)=O)[C@@H](O)C3)c2)c1 [I-81, [(1R,2S,4R)-2-hydroxy-4-{[5-({4-[3-(methylsulfanyl)benzyl]-2-thienyl}carbonyl)pyrimidin-4-yl]amino}cyclopentyl]methyl sulfamate] | – | < 10 nM | 98% | –
NS(=O)(=O)OC[C@H]1C[C@@H](Nc2ncncc2C(=O)c2cc(CCc3cccc(Cl)c3)cs2)C[C@@H]1O [I-146, [(1R,2S,4R)-4-{[5-({4-[2-(3-chlorophenyl)ethyl]-2-thienyl}carbonyl)pyrimidin-4-yl]amino}-2-hydroxycyclopentyl]methyl sulfamate] | – | < 10 nM | 94% | –
